Where a SMILES comes first, the peptide text is derived from it. [ ]: non-standard residue; d: D form.
Legend:
[1] = molecular target: T1, Aβ(1-42) (Homo sapiens, UniProt P05067); assay: SPR, Aβ(1-42) immobilized, D-peptide as analyte; type: binding; details: SPR Biacore T200, Aβ(1-42) immobilized on CM-5 chip by amine coupling, D-peptide analyte 0.625-20 µM, multicycle, 10 mM HEPES + 50 mM NaCl pH 7.4, 25 °C, steady-state Langmuir 1:1 fit (Fig. 1a)
T1 construct: Synthetic Aβ(1-42) and (Gln^22, Asn^23)-Amyloid β-Protein (1-40) (D/I Aβ) with >95% purity were purchased; purchased Bachem (Bubendorf, Switzerland); host or cells: chemical synthesis
T1 sequence (P05067 672-713): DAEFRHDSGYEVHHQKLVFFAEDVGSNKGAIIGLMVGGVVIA
Description: The dissociation constant (KD) of RD2D3 and cRD2D3 binding to Aβ(1-42) and D/I Aβ was determined by SPR spectroscopy using a Biacore T200 instrument (Biacore, GE Healthcare, Uppsala, Sweden). Aβ(1-42) or D/I Aβ was used as the ligand, while RD2D3 and cRD2D3 were used as the analyte or vice versa.
By using Aβ(1-42) or D/I Aβ as a ligand, it was immobilized onto a series S CM-5 sensor chip (GE Healthcare, Uppsala, Sweden) by amine coupling. In short, the flow cells were activated by a mixture of 50 mM N-hydroxysuccinimide (NHS) and 16.1 mM N-Ethyl-N’-(dimethylaminopropyl)carbodiimide (EDC) (XanTec, Düsseldorf, Germany) for 7 min. Aβ(1-42) or D/I Aβ were dissolved to a final concentration of 50 µg/mL in 10 mM sodium acetate pH 5 (AppliChem, Darmstadt, Germany) and injected over one of the activated flow cells to a final signal of 1700 RU. After the immobilization, the ligand and reference flow cells were quenched by injecting 1 M ethanolamine pH 8.5 (XanTec, Düsseldorf, Germany) for 7 min. […] The peptides were diluted in the running buffer to the following concentrations: 20 µM, 10 µM, 5 µM, 2.5 µM, 1.25 µM and 0.625 µM. All samples were injected over the flow cells for 180 s, followed by a dissociation step of 600 s with running buffer. Regeneration of the sensor chip was accomplished by a 45 s injection of 2 M of guanidinium hydrochloride (AppliChem, Darmstadt, Germany). […]

[2] = Body weight in i.p. treatment study; type: in vivo; details: Tg-SwDI mice, mean ± SEM; for Body weight before treatment: 11 months old, before 28 d i.p. osmotic minipump 8 mg/kg daily; for Body weight after treatment: after 28 d i.p. osmotic minipump 8 mg/kg daily
Description: Eleven months old Tg-SwDI were treated for 28 d i.p. by use of an osmotic minipump (Alzet osmotic pumps, Modell 1004, Charles River, Wilmington, MS, USA) with a daily dosage of 8 mg/kg peptide (RD2D3 (n = 14) or cRD2D3 (n = 12)) in PBS (pH 7.4) or vehicle (Placebo (n = 13), PBS, pH 7.4). The minipumps and the i.p. application route have been used to achieve continuous application of the study drug. After surgery, mice were monitored daily the following three days and twice each week until the end of the treatment. A loss of body weight and severe conspicuities were defined as exclusion criteria. No mouse was affected by these exclusion criteria. During the last one and a half weeks of treatment, different behavioral tests (nesting behavior, marble burying, open field test and MWM) were conducted with all mice.

[3] = molecular target: T2, Aβ(1-42)-oligomers (Homo sapiens, UniProt P05067); assay: QIAD assay, Aβ(1-42) oligomer elimination; type: biochemical; details: 80 µM Aβ(1-42) preincubated 2 h, 20 µM D-peptide, 30 min coincubation, density gradient fractions 4-6, RP-HPLC UV 214 nm, N = 2-5
T2 construct: Synthetic Aβ(1-42) and (Gln^22, Asn^23)-Amyloid β-Protein (1-40) (D/I Aβ) with >95% purity were purchased; purchased Bachem (Bubendorf, Switzerland); host or cells: chemical synthesis
T2 sequence (P05067 672-713): as above
Description: According to Brener et al., a QIAD assay was performed in order to evaluate the Aβ(1-42) or D/I Aβ oligomer elimination efficacies of RD2D3 and cRD2D3 [18]. In short, 80 µM lyophilized Aβ(1-42) or 40 µM D/I Aβ was preincubated for 2 h or 15 min, respectively, to enrich Aβ-oligomers. Afterwards, either 20 µM RD2D3 or cRD2D3 for Aβ(1-42) or 10 µM RD2D3 or cRD2D3 for D/I Aβ were added to the preincubated solution and coincubated for additional 30 min. Subsequently, the samples were loaded on the top of a density gradient (5–50% (w/v) iodixanol (OptiPrep, Sigma-Aldrich, Darmstadt, Germany)) followed by an ultracentrifugation step (3 h at 4 °C and 259000× g (Optima TL-100, Beckman Coulter, Brea, CA, USA)). Following the ultracentrifugation, 14 fractions (140 µL each) were harvested by upward displacement. Fraction 15 contains the dissolved pellet in 6 M guanidine hydrochloride solution. Top fractions 1–2 contained Aβ-monomers, fractions 4–6 contained the Aβ-oligomers, which are of special interest, and the bottom fractions 11–14 contained high molecular weight (co-)precipitates or aggregated Aβ. Aβ(1-42) or D/I Aβ concentrations of each fraction were determined via analytical RP-HPLC and UV absorbance detection at 214 nm.

Compound | Kd [1] [µM] | Body weight before treatment [2] [g] | Body weight after treatment [2] [g] | Elimination of toxic Aβ(1-42)-oligomers (QIAD) [3] [%]
CC(C)C[C@@H](NC(=O)[C@@H](CCCNC(=N)N)NC(=O)[C@H](NC(=O)[C@@H](CCCNC(=N)N)NC(=O)[C@H]1CCCN1C(=O)[C@@H](CCCNC(=N)N)NC(=O)[C@@H](CCCNC(=N)N)NC(=O)[C@@H](CCCNC(=N)N)NC(=O)[C@@H](CCCNC(=N)N)NC(=O)[C@@H](CCCNC(=N)N)NC(=O)[C@@H](CCCNC(=N)N)NC(=O)[C@@H](CC(N)=O)NC(=O)[C@@H](Cc1c[nH]cn1)NC(=O)[C@H](NC(=O)[C@@H](Cc1c[nH]cn1)NC(=O)[C@@H](CC(C)C)NC(=O)[C@H](NC(=O)[C@H]1CCCN1)[C@H](C)O)[C@H](C)O)[C@H](C)O)C(=O)N[C@H](Cc1c[nH]cn1)C(=O)N[C@@H](C(=O)N[C@H](Cc1c[nH]cn1)C(=O)N[C@H](CCCNC(=N)N)C(=O)N[C@H](CC(N)=O)C(=O)N[C@H](CCCNC(=N)N)C(N)=O)[C@H](C)O [RD2D3] (H-[dP][dT][dL][dH][dT][dH][dN][dR][dR][dR][dR][dR][dR][dP][dR][dT][dR][dL][dH][dT][dH][dR][dN][dR]-NH2) | 7.01 ± 0.31 | 33.2 ± 2.6 | 34.3 ± 0.6 | –
CC(C)C[C@H]1NC(=O)[C@@H](CCCNC(=N)N)NC(=O)[C@@H]([C@H](C)O)NC(=O)[C@@H](CCCNC(=N)N)NC(=O)[C@H]2CCCN2C(=O)[C@@H](CCCNC(=N)N)NC(=O)[C@@H](CCCNC(=N)N)NC(=O)[C@@H](CCCNC(=N)N)NC(=O)[C@@H](CCCNC(=N)N)NC(=O)[C@@H](CCCNC(=N)N)NC(=O)[C@@H](CCCNC(=N)N)NC(=O)[C@@H](CC(N)=O)NC(=O)[C@@H](Cc2c[nH]cn2)NC(=O)[C@@H]([C@H](C)O)NC(=O)[C@@H](Cc2c[nH]cn2)NC(=O)[C@@H](CC(C)C)NC(=O)[C@@H]([C@H](C)O)NC(=O)[C@H]2CCCN2C(=O)[C@@H](CCCNC(=N)N)NC(=O)[C@@H](CC(N)=O)NC(=O)[C@@H](CCCNC(=N)N)NC(=O)[C@@H](Cc2c[nH]cn2)NC(=O)[C@@H]([C@H](C)O)NC(=O)[C@@H](Cc2c[nH]cn2)NC1=O [cRD2D3] (cyclo([dH][dN][dR][dR][dR][dR][dR][dR][dP][dR][dT][dR][dL][dH][dT][dH][dR][dN][dR][dP][dT][dL][dH][dT])) | 10.4 ± 0.61 | 35.1 ± 1.4 | 33.2 ± 1.0 | 80

Source: article PMC8234218, “In Vitro and In Vivo Efficacies of the Linear and the Cyclic Version of an All-D-Enantiomeric Peptide Developed for the Treatment of Alzheimer’s Disease” (International Journal of Molecular Sciences, 2021)
